# Results published in publication PMC12406734, “B3GALT6 mutations lead to compromised connective tissue biomechanics in Ehlers-Danlos syndrome” (JCI Insight, 2025).
# Target: T1, GlcAT-I (GST-GlcAT-I) (Homo sapiens, UniProt O94766)
# T1 construct: gene B3GAT3; truncated GlcAT-I, GST fusion, E. coli, purified
# T1 sequence (O94766 29-335 limits assumed): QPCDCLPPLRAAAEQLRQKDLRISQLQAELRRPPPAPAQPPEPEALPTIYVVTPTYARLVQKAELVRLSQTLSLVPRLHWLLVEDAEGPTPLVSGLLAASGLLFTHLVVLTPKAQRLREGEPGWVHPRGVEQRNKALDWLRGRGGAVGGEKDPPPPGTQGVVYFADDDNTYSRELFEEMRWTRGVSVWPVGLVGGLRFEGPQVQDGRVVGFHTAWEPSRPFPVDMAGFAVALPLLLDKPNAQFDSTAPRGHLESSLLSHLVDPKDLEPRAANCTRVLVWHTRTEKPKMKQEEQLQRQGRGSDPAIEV
# Assay: UDP-Glo glycosyltransferase assay
# Assay type: biochemical
# Details: acceptor; 5 mM UDP-GlcA, 100 mM sodium acetate pH 6.5, 10 mM MnCl2, 37 °C, 60 min
structure (smiles),measurement,value
COc1ccc2ccc(O[C@@H]3OC[C@@H](O[C@@H]4O[C@H](CO)[C@H](O)[C@H](O[C@@H]5O[C@H](CO)[C@H](O)[C@H](O)[C@H]5O)[C@H]4O)[C@H](O)[C@H]3O)cc2c1 [Gal-Gal-Xyl-OMN],UDP-Glo glycosyltransferase assay,GlcAT-I was highly active towards the trisaccharide Gal-Gal-Xyl-OMN
